The NIST ThermoML archive (doi:10.1016/j.jct.2019.05.009)

Test: molar heat capacity at constant pressure
Conditions: 101.33 kPa, Crystal, relaxation calorimetry

[Al] [aluminum]
Conditions	molar heat capacity at constant pressure [J/K/mol]
1.863 K	0.002602
1.936 K	0.002749
2.01 K	0.002882
2.089 K	0.002997
2.173 K	0.003177
2.264 K	0.003323
2.36 K	0.003531
2.459 K	0.003773
2.562 K	0.003901
2.677 K	0.00413
2.795 K	0.004373
2.915 K	0.004596
3.042 K	0.004765
3.177 K	0.005056
3.318 K	0.005413
3.464 K	0.005679
3.615 K	0.005941
3.776 K	0.006361
3.943 K	0.00681
4.119 K	0.007189
4.301 K	0.007838
4.492 K	0.008275
4.687 K	0.008914
4.896 K	0.009549
5.111 K	0.01026
5.34 K	0.01095
5.574 K	0.01158
5.822 K	0.01268
6.08 K	0.01359
6.349 K	0.01458
6.636 K	0.01573
6.925 K	0.01714
7.23 K	0.01866
7.547 K	0.02044
7.883 K	0.02258
8.234 K	0.02467
8.595 K	0.02641
8.981 K	0.02942
9.378 K	0.03231
9.795 K	0.03497
10.24 K	0.03897
10.71 K	0.04317
11.19 K	0.04767
11.69 K	0.05284
12.21 K	0.05868
12.75 K	0.06538
13.31 K	0.07304
13.9 K	0.08149
14.52 K	0.09112
15.16 K	0.1021
15.66 K	0.1115
17.12 K	0.1425
18.7 K	0.1842
20.44 K	0.24
22.34 K	0.317
24.42 K	0.423
26.67 K	0.5669
29.14 K	0.7607
31.85 K	1.02
34.81 K	1.356
38.05 K	1.784
41.58 K	2.319
45.44 K	2.967
49.66 K	3.728
54.27 K	4.615
59.31 K	5.613
64.81 K	6.718
70.81 K	7.909
77.38 K	9.17
84.53 K	10.51
92.37 K	11.83
100.93 K	13.12
111.01 K	14.49
121.1 K	15.74
131.22 K	16.79
141.3 K	17.72
151.36 K	18.54
161.49 K	19.25
171.61 K	19.88
181.69 K	20.47
191.79 K	21.01
201.89 K	21.48
211.98 K	21.89
222.08 K	22.24
232.18 K	22.58
242.28 K	22.91
252.36 K	23.16
262.46 K	23.41
272.56 K	23.64
282.64 K	23.88
292.73 K	24.08
302.81 K	24.25

O=C(O)c1ccccc1 [benzoic acid]
Conditions	molar heat capacity at constant pressure [J/K/mol]
1.855 K	0.01205
1.92 K	0.01371
1.999 K	0.01544
2.082 K	0.0168
2.168 K	0.01932
2.26 K	0.02218
2.357 K	0.02464
2.464 K	0.0282
2.568 K	0.03421
2.679 K	0.03716
2.796 K	0.04141
2.918 K	0.04667
3.044 K	0.04829
3.179 K	0.0605
3.32 K	0.07095
3.465 K	0.07898
3.617 K	0.08814
3.776 K	0.103
3.942 K	0.1157
4.118 K	0.1296
4.303 K	0.1534
4.491 K	0.172
4.686 K	0.1966
4.893 K	0.2248
5.109 K	0.2491
5.336 K	0.3026
5.572 K	0.3324
5.823 K	0.382
6.077 K	0.452
6.345 K	0.5096
6.625 K	0.5803
6.92 K	0.6878
7.225 K	0.7916
7.545 K	0.8991
7.878 K	1.031
8.227 K	1.197
8.596 K	1.338
8.976 K	1.541
9.373 K	1.763
9.789 K	1.997
10.24 K	2.278
10.71 K	2.579
11.18 K	2.902
11.68 K	3.262
12.2 K	3.647
12.74 K	4.074
13.3 K	4.535
13.89 K	5.046
14.5 K	5.598
15.14 K	6.188
15.64 K	6.658
17.1 K	8.085
18.69 K	9.716
20.41 K	11.56
22.32 K	13.61
24.4 K	15.91
26.66 K	18.4
29.13 K	20.97
31.84 K	23.77
34.8 K	26.64
38.03 K	29.6
41.56 K	32.79
45.42 K	35.88
49.63 K	39.11
54.24 K	42.18
59.28 K	45.06
64.78 K	47.92
70.79 K	50.65
77.36 K	53.75
84.51 K	57.18
92.38 K	61.03
100.95 K	64.26
110.98 K	67.64
121.09 K	71.22
131.21 K	75.19
141.28 K	78.86
151.34 K	82.29
161.49 K	85.76
171.59 K	90.18
181.67 K	95.02
191.74 K	98.7
201.82 K	102.27
211.92 K	106.37
222 K	112.07
232.09 K	117.31
242.17 K	119.6
252.25 K	124.22
262.35 K	128.72
272.46 K	133
282.54 K	137.8
292.59 K	141.72
302.66 K	146.37
